Laboratory results published in patent US20220400680A1, “USE OF ACYLCYANAMIDES OR SALTS THEREOF FOR REGULATING PLANT GROWTH” (Alzchem Trostberg GmbH, priority 2019, published 2022).

Key:
[1] = tested on: Table apple, type Boiken apple (C1); test: Greenhouse test, cut apple branches C1 dipped in test solution, bud development stage; type: in vivo, Malus domestica; set-up: key to Bud development stage, apple branches C1: Stage 0: Buds unchanged; Stage 1: Buds slightly swollen, first green tips visible; Stage 2: strongly swollen, green buds; Stage 3: Buds before breaking open, leaf or flower root already visible; Stage 4: Flower buds fully developed, but still closed, white petals already visible. In the case of the grapevine, stage 4 was the unfolding of the first leaves; Stage 5: Flowers fully open or, in the case of grapevine, unfolding of the flower roots (“Gescheine”) on the fully leafed sprouts; conditions: for Good to very good dormancy-breaking effect, apple C1: stage 4 reached or exceeded after 27 days vs negative control; for Dormancy-breaking effect according to the definition, apple C1: stage 4 reached or exceeded after 36 days vs negative control
Summary of the method: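 Cut Boiken apple branches kept in water jars in a greenhouse at about 22 °C under natural light and dipped in test solution. Solutions contained 0.15 mol test substance (0.075 mol for bis-cyanamides) plus 0.15 g BreakThru OE-446 per 500 g water. Bud development scored on a stage scale up to full flowering.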

[2] = tested on: Table cherry, type Burlat (C3); test: Greenhouse test, cut cherry branches C3 dipped in test solution, bud development stage; type: in vivo, Prunus avium; set-up: key to Bud development stage, cherry branches C3: Stage 0: Buds unchanged; Stage 1: Buds slightly swollen, first green tips visible; Stage 2: strongly swollen, green buds; Stage 3: Buds before breaking open, leaf or flower root already visible; Stage 4: Flower buds fully developed, but still closed, white petals already visible. In the case of the grapevine, stage 4 was the unfolding of the first leaves; Stage 5: Flowers fully open or, in the case of grapevine, unfolding of the flower roots (“Gescheine”) on the fully leafed sprouts; conditions: for Good to very good dormancy-breaking effect, cherry C3: stage 4 reached or exceeded after 21 days vs negative control; for Dormancy-breaking effect according to the definition, cherry C3: stage 4 reached or exceeded after 27 days vs negative control
Summary of the method: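 Cut branches kept in water jars in a greenhouse at about 22° C. under natural light after dipping in aqueous solution of 0.15 mol test substance (0.075 mol for bis-cyanamides) plus 0.15 g BreakThru OE-446 per 500 g. Bud development scored on a stage scale from closed buds to fully open flowers.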

[3] = tested on: Table apple, type Zabergäu-Renette (C2); test: Greenhouse test, cut apple branches C2 dipped in test solution, bud development stage; type: in vivo, Malus domestica; set-up: key to Bud development stage, apple branches C2: Stage 0: Buds unchanged; Stage 1: Buds slightly swollen, first green tips visible; Stage 2: strongly swollen, green buds; Stage 3: Buds before breaking open, leaf or flower root already visible; Stage 4: Flower buds fully developed, but still closed, white petals already visible. In the case of the grapevine, stage 4 was the unfolding of the first leaves; Stage 5: Flowers fully open or, in the case of grapevine, unfolding of the flower roots (“Gescheine”) on the fully leafed sprouts; conditions: for Dormancy-breaking effect according to the definition, apple C2: stage 4 reached or exceeded after 36 days vs negative control
Summary of the method: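 Cut branches held in water jars in a greenhouse at about 22° C. under natural light after dipping in aqueous test solution: 0.15 mol substance (0.075 mol for bis-cyanamides) plus 0.15 g BreakThru OE-446 per 500 g. Bud development scored on a stage scale from closed buds to fully open flowers.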

[4] = tested on: Grape, type Pinot Noir (C4); test: Greenhouse test, cut wine sprouts C4 dipped in test solution, bud development stage; type: in vivo, Vitis vinifera subsp. vinifera; set-up: key to Bud development stage, wine sprouts C4: Stage 0: Buds unchanged; Stage 1: Buds slightly swollen, first green tips visible; Stage 2: strongly swollen, green buds; Stage 3: Buds before breaking open, leaf or flower root already visible; Stage 4: Flower buds fully developed, but still closed, white petals already visible. In the case of the grapevine, stage 4 was the unfolding of the first leaves; Stage 5: Flowers fully open or, in the case of grapevine, unfolding of the flower roots (“Gescheine”) on the fully leafed sprouts; conditions: for Dormancy-breaking effect according to the definition, wine C4: stage 4 reached or exceeded after 36 days vs negative control
Summary of the method: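 Cut Pinot Noir grapevine sprouts were dipped in aqueous test solution (0.15 mol test substance, or 0.075 mol for bis-cyanamides, plus 0.15 g BreakThru OE-446 per 500 g total) and kept in water jars at about 22° C under natural light. Bud development was scored on a staged scale from closed buds to fully open flowers.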

[5] = T1 (14 d), 0.15 mol (A-14, A-15: 0.075 mol) per 500 g solution
[6] = stage 4 reached or exceeded after 27 days vs negative control

N#CNC=O.[Na] [Example A-2, Sodium Formylcyanamide]
Bud development stage, apple branches C1 [1, 5]: 0
Bud development stage, apple branches C1 ([1]; T2 (16 d)): 0
Bud development stage, apple branches C1 ([1]; T3 (21 d)): 4
Bud development stage, apple branches C1 ([1]; T4 (27 d)): 5
Bud development stage, apple branches C1 ([1]; T5 (36 d)): 5
Bud development stage, apple branches C1 ([1]; T6 (56 d)): 5
Good to very good dormancy-breaking effect, apple C1 [1]: good to very good dormancy-breaking effect
Dormancy-breaking effect according to the definition, apple C1 [1]: dormancy-breaking effect
Bud development stage, cherry branches C3 [2, 5]: 1
Bud development stage, cherry branches C3 ([2]; T2 (16 d)): 2
Bud development stage, cherry branches C3 ([2]; T3 (21 d)): 5
Bud development stage, cherry branches C3 ([2]; T4 (27 d)): 5
Bud development stage, cherry branches C3 ([2]; T5 (36 d)): 5
Bud development stage, cherry branches C3 ([2]; T6 (56 d)): 5
Good to very good dormancy-breaking effect, cherry C3 [2]: good to very good dormancy-breaking effect
Dormancy-breaking effect according to the definition, cherry C3 [2]: dormancy-breaking effect
Bud development stage, apple branches C2 [3, 5]: 0
Bud development stage, apple branches C2 ([3]; T2 (16 d)): 0
Bud development stage, apple branches C2 ([3]; T3 (21 d)): 1
Bud development stage, apple branches C2 ([3]; T4 (27 d)): 3
Bud development stage, apple branches C2 ([3]; T5 (36 d)): 5
Bud development stage, apple branches C2 ([3]; T6 (56 d)): 5
Dormancy-breaking effect according to the definition, apple C2 [3]: dormancy-breaking effect
Bud development stage, wine sprouts C4 [4, 5]: 0
Bud development stage, wine sprouts C4 ([4]; T2 (16 d)): 1
Bud development stage, wine sprouts C4 ([4]; T3 (21 d)): 3
Bud development stage, wine sprouts C4 ([4]; T4 (27 d)): 5
Bud development stage, wine sprouts C4 ([4]; T5 (36 d)): 5
Bud development stage, wine sprouts C4 ([4]; T6 (56 d)): 5
Effect compared with cyanamide, wine C4 ([4]; in vivo): equal effect with cyanamide
Good to very good dormancy-breaking effect, wine C4 [4, 6]: good to very good dormancy-breaking effect
Dormancy-breaking effect according to the definition, wine C4 [4]: dormancy-breaking effect

CCCCCCCCCCCC(=O)NC#N.[Na] [Example A-10, Sodium dodecanoyl cyanamide]
Bud development stage, apple branches C1 [1, 5]: 1
Bud development stage, apple branches C1 ([1]; T2 (16 d)): 2
Bud development stage, apple branches C1 ([1]; T3 (21 d)): 4
Bud development stage, apple branches C1 ([1]; T4 (27 d)): 5
Bud development stage, apple branches C1 ([1]; T5 (36 d)): 5
Bud development stage, apple branches C1 ([1]; T6 (56 d)): 5
Good to very good dormancy-breaking effect, apple C1 [1]: good to very good dormancy-breaking effect
Dormancy-breaking effect according to the definition, apple C1 [1]: dormancy-breaking effect
Bud development stage, cherry branches C3 [2, 5]: 1
Bud development stage, cherry branches C3 ([2]; T2 (16 d)): 2
Bud development stage, cherry branches C3 ([2]; T3 (21 d)): 4
Bud development stage, cherry branches C3 ([2]; T4 (27 d)): 4
Bud development stage, cherry branches C3 ([2]; T5 (36 d)): 4
Bud development stage, cherry branches C3 ([2]; T6 (56 d)): 5
Good to very good dormancy-breaking effect, cherry C3 [2]: good to very good dormancy-breaking effect
Dormancy-breaking effect according to the definition, cherry C3 [2]: dormancy-breaking effect
Bud development stage, apple branches C2 [3, 5]: 0
Bud development stage, apple branches C2 ([3]; T2 (16 d)): 0
Bud development stage, apple branches C2 ([3]; T3 (21 d)): 0
Bud development stage, apple branches C2 ([3]; T4 (27 d)): 1
Bud development stage, apple branches C2 ([3]; T5 (36 d)): 2
Bud development stage, apple branches C2 ([3]; T6 (56 d)): 4
Bud development stage, wine sprouts C4 [4, 5]: 0
Bud development stage, wine sprouts C4 ([4]; T2 (16 d)): 0
Bud development stage, wine sprouts C4 ([4]; T3 (21 d)): 0
Bud development stage, wine sprouts C4 ([4]; T4 (27 d)): 1
Bud development stage, wine sprouts C4 ([4]; T5 (36 d)): 2
Bud development stage, wine sprouts C4 ([4]; T6 (56 d)): 4

CCCCCC(=O)NC#N.[Na] [Example A-9, Sodium hexanoyl cyanamide]
Bud development stage, apple branches C1 [1, 5]: 0
Bud development stage, apple branches C1 ([1]; T2 (16 d)): 1
Bud development stage, apple branches C1 ([1]; T3 (21 d)): 1
Bud development stage, apple branches C1 ([1]; T4 (27 d)): 2
Bud development stage, apple branches C1 ([1]; T5 (36 d)): 2
Bud development stage, apple branches C1 ([1]; T6 (56 d)): 3
Bud development stage, cherry branches C3 [2, 5]: 0
Bud development stage, cherry branches C3 ([2]; T2 (16 d)): 1
Bud development stage, cherry branches C3 ([2]; T3 (21 d)): 2
Bud development stage, cherry branches C3 ([2]; T4 (27 d)): 3
Bud development stage, cherry branches C3 ([2]; T5 (36 d)): 5
Bud development stage, cherry branches C3 ([2]; T6 (56 d)): 5
Bud development stage, apple branches C2 [3, 5]: 0
Bud development stage, apple branches C2 ([3]; T2 (16 d)): 1
Bud development stage, apple branches C2 ([3]; T3 (21 d)): 4
Bud development stage, apple branches C2 ([3]; T4 (27 d)): 5
Bud development stage, apple branches C2 ([3]; T5 (36 d)): 5
Bud development stage, apple branches C2 ([3]; T6 (56 d)): 5
Good to very good dormancy-breaking effect, apple C2 [3, 6]: good to very good dormancy-breaking effect
Dormancy-breaking effect according to the definition, apple C2 [3]: dormancy-breaking effect
Bud development stage, wine sprouts C4 [4, 5]: 0
Bud development stage, wine sprouts C4 ([4]; T2 (16 d)): 0
Bud development stage, wine sprouts C4 ([4]; T3 (21 d)): 0
Bud development stage, wine sprouts C4 ([4]; T4 (27 d)): 2
Bud development stage, wine sprouts C4 ([4]; T5 (36 d)): 5
Bud development stage, wine sprouts C4 ([4]; T6 (56 d)): 5
Dormancy-breaking effect according to the definition, wine C4 [4]: dormancy-breaking effect

N#CNC(=O)CCC(=O)NC#N.[Na].[Na] [Example A-14, Disodium-(3-(cyano-amidocarbonyl)-propionyl-cyanamide)]
Bud development stage, apple branches C1 [1, 5]: 1
Bud development stage, apple branches C1 ([1]; T2 (16 d)): 1
Bud development stage, apple branches C1 ([1]; T3 (21 d)): 2
Bud development stage, apple branches C1 ([1]; T4 (27 d)): 3
Bud development stage, apple branches C1 ([1]; T5 (36 d)): 5
Bud development stage, apple branches C1 ([1]; T6 (56 d)): 5
Dormancy-breaking effect according to the definition, apple C1 [1]: dormancy-breaking effect
Bud development stage, cherry branches C3 [2, 5]: 0
Bud development stage, cherry branches C3 ([2]; T2 (16 d)): 1
Bud development stage, cherry branches C3 ([2]; T3 (21 d)): 4
Bud development stage, cherry branches C3 ([2]; T4 (27 d)): 5
Bud development stage, cherry branches C3 ([2]; T5 (36 d)): 5
Bud development stage, cherry branches C3 ([2]; T6 (56 d)): 5
Good to very good dormancy-breaking effect, cherry C3 [2]: good to very good dormancy-breaking effect
Dormancy-breaking effect according to the definition, cherry C3 [2]: dormancy-breaking effect
Bud development stage, apple branches C2 [3, 5]: 0
Bud development stage, apple branches C2 ([3]; T2 (16 d)): 0
Bud development stage, apple branches C2 ([3]; T3 (21 d)): 0
Bud development stage, apple branches C2 ([3]; T4 (27 d)): 1
Bud development stage, apple branches C2 ([3]; T5 (36 d)): 3
Bud development stage, apple branches C2 ([3]; T6 (56 d)): 4
Bud development stage, wine sprouts C4 [4, 5]: 0
Bud development stage, wine sprouts C4 ([4]; T2 (16 d)): 0
Bud development stage, wine sprouts C4 ([4]; T3 (21 d)): 0
Bud development stage, wine sprouts C4 ([4]; T4 (27 d)): 2
Bud development stage, wine sprouts C4 ([4]; T5 (36 d)): 4
Bud development stage, wine sprouts C4 ([4]; T6 (56 d)): 4
Dormancy-breaking effect according to the definition, wine C4 [4]: dormancy-breaking effect
